Reference: patent US11053223B2, “Phenoxyquinazoline compounds and their use in treating cancer” (AstraZeneca AB, priority 2017, dated 2021)

What was measured:
Ba/F3-Parental = assay: MTS viability assay, Ba/F3 parental cells; type: cell-based; conditions: Mus musculus, BaF3, 72 h, top concentration 10 uM, mean of at least 3 biological replicates
Protocol: (§1) The impact of KIT inhibitors on the viability of Ba/F3 expressing KIT mutations was determined using an MTS assay, which is a colorimetric sensitive quantification of viable cells in proliferation and cytotoxicity assay. In the MTS assay […] in the presence of phenazine methosulfate (PMS) was used. The mitochondrial reductase forms a formazan which absorbs at 490 nm. Cells in exponential growth phase were added to 384-well plates containing pre-dispensed compounds (top concentration 10 uM, 10-point curve). The cells were incubated for 72 h at 37° C. and 5% CO2. After 72 h, MTS reagent was added to the plates and incubated an additional 2 h at 37° C. before measuring the absorbance at 490 nm on a Tecan microplate reader using Magellan Software (Tecan Trading AG, Switzerland).
(§2) The absorbances were normalized as follows: (Read-Day0 control)/(Day3 control-Day0 control)*100. The GI50 values were generated using Genedata Screener software (Genedata; Lexington, Mass.). A non-linear regression with constraints for top and bottom between 100 and −100 and no constraint on the Hill coefficient was used to generate GI50 values. The GI50 values reported below are the calculated mean result of at least 3 biological replicates across all the cell lines tested.

[1] = target: T1, KIT exon11 deletion (557-558) and secondary mutation T670I (Homo sapiens, UniProt P10721, DEL557-558/T670I); assay: MTS viability assay, Ba/F3 expressing KIT exon11 deletion (557-558) and T670I; type: cell-based; conditions: 72 h, KIT exon11 deletion (557-558) plus secondary mutation, mean of at least 3 biological replicates
T1 construct: expressed in transfected cells; host or cells: Ba/F3 cells infected with lentivirus (pLVX-IRES Puro vector)
Protocol: (§3) 3 different KIT cDNA encoding for the exon11 deletion (557-558) and a secondary mutation (V654A, T670I, D816H) from Genescript were cloned into pLVX-IRES Puro vector(Clontech). Lentiviral particles were generated using Trans-lentiviral ORF packaging kit (TLP 5918) from Thermo Scientific (Waltham, Mass.) in HEK293-T/17 cells, according to the manufacturer's instructions.
(§4) Exponentially grown Ba/F3 cells (1.5×10^6 cells in 2 ml medium) were infected with 2 ml of viral suspension in a 6-well plate in the presence of mIL-3 (10 ng/ml) and polybrene (4 μg/ml) (Sigma Aldrich, St. Louis, Mo.) and incubated for 24 h. After 24 h, the cells were centrifuged and the viral supernatant was discarded. The cells were then re-suspended in fresh medium and allowed to recover for another day. The following day, the cells were seeded in complete medium without murine IL-3. After a week or two, when cells started proliferating, a selection was carried out by gradually increasing the puromycin concentration to 0.5 ug/ml. Once the cells were growing exponentially in puromycin, batches of cells were frozen down for banking.
as §1, §2

[2] = target: T2, KIT exon11 deletion (557-558) and secondary mutation V654A (Homo sapiens, UniProt P10721, DEL557-558/V654A); assay: MTS viability assay, Ba/F3 expressing KIT exon11 deletion (557-558) and V654A; type: cell-based; conditions: 72 h, KIT exon11 deletion (557-558) plus secondary mutation, mean of at least 3 biological replicates
T2 construct: expressed in transfected cells; host or cells: Ba/F3 cells infected with lentivirus (pLVX-IRES Puro vector)
Protocol: as §3, §4, §1, §2

[3] = target: T3, KIT exon11 deletion (557-558) and secondary mutation D816H (Homo sapiens, UniProt P10721, D816H/DEL557-558); assay: MTS viability assay, Ba/F3 expressing KIT exon11 deletion (557-558) and D816H; type: cell-based; conditions: 72 h, KIT exon11 deletion (557-558) plus secondary mutation, mean of at least 3 biological replicates
T3 construct: expressed in transfected cells; host or cells: Ba/F3 cells infected with lentivirus (pLVX-IRES Puro vector)
Protocol: as §3, §4, §1, §2

[4] = system: Tel-KDR (KDR K790-V1356 fused to the C-terminus of Tel); assay: MTS viability assay, Ba/F3 expressing Tel-KDR; type: cell-based; conditions: 72 h, Ba/F3 cells, mean of at least 3 biological replicates
Protocol: Tel-KDR myc was cloned into pBCS2004, a retroviral vector, wherein KDR (K790-V1356) is fused to the C-terminus of Tel. Retroviral particles were generated in HEK293T cells. The Tel-KDR plasmid was co-transfected with helper viruses (gag-Pol and VSV-G) into HEK293T cells using calcium phosphate and the virus was harvested 72 h after transfection.
as §4, §1, §2

GIST [5] = conditions: PhIII study, patients with GIST after relapse to imatinib and sunitinib; cited from earlier work
GIST [6] = conditions: within 2 years; cited from earlier work

T1 sequence (P10721 with tags, fused parts or gaps DEL557-558/T670I): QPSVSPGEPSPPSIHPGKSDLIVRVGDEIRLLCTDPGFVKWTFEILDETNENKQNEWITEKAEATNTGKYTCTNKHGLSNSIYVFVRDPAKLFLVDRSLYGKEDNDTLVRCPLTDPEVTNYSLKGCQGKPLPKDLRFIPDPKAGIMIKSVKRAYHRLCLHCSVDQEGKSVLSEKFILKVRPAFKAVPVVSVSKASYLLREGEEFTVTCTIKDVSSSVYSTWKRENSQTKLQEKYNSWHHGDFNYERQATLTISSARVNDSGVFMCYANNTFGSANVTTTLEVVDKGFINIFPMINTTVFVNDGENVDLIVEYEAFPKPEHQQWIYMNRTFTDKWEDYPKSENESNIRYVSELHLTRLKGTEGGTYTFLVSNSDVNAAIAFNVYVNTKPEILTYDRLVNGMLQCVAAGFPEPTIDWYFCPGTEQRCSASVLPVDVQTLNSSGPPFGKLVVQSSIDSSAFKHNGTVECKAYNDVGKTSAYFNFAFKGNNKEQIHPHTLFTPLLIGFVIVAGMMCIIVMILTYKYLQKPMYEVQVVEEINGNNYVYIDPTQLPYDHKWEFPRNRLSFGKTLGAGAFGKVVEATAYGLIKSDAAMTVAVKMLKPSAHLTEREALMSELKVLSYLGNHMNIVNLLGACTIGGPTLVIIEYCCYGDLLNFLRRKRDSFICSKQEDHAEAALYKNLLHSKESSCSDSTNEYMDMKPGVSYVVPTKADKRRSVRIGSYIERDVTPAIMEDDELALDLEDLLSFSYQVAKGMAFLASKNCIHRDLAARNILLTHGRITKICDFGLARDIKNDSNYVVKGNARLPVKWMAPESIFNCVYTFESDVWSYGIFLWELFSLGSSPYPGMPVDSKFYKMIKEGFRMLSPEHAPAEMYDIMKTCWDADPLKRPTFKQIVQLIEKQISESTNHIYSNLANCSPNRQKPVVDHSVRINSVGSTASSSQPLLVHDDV
T2 sequence (P10721 with tags, fused parts or gaps DEL557-558/V654A): as the sequence (P10721 with tags, fused parts or gaps DEL557-558/T670I) above, with V627A, I643T counted along it
T3 sequence (P10721 with tags, fused parts or gaps DEL557-558/D816H): as the sequence (P10721 with tags, fused parts or gaps DEL557-558/T670I) above, with I643T, D789H counted along it

Row | Structure (SMILES) | GI50 (Ba/F3-Parental) [nM] | Ba/F3-T6701 GI50 [1] [nM] | Ba/F3-V654A GI50 [2] [nM] | Ba/F3-D816H GI50 [3] [nM] | GI50 [4] [nM] | median PFS (GIST [5]) [months] | patients developed resistance (GIST [6]) [%]
1 | COc1cc2c(Oc3ccc(NC(=O)Cn4cc(C(C)C)nn4)cc3)ncnc2cc1O[C@@H]1CCOC1 (single isomer, unassigned) [Example 12] | ≥ 10000 | 23 | 11 | 22 | 840 | – | –
2 | COc1cc2c(Oc3ccc(NC(=O)Cn4cc(C(C)C)nn4)cc3)ncnc2cc1O[C@H]1CCOC1 (single isomer, unassigned) [Example 13] | ≥ 10000 | 30 | 13 | 24 | 577 | – | –
3 | COc1cc2ncnc(Oc3ccc(NC(=O)Cn4cc(C(C)C)nn4)cc3)c2cc1OC [Example 1, N-(4-((6,7-Dimethoxyquinazolin-4-yl)oxy)phenyl)-2-(4-isopropyl-1H-1,2,3-triazol-1-yl)acetamide] | ≥ 10000 | 17 | 3 | 19 | 600 | – | –
4 | COc1cc2ncnc(Oc3ccc(NC(=O)Cn4cc(C5CC5)nn4)cc3)c2cc1OC [Example 2, 2-(4-Cyclopropyl-1H-1,2,3-triazol-1-yl)-N-(4-((6,7-dimethoxyquinazolin-4-yl)oxy)phenyl)acetamide] | ≥ 10000 | 68 | 4 | 95 | 1930 | – | –
5 | COc1cc(Oc2ncnc3cc(OC)c(OC)cc23)ccc1NC(=O)Cn1cc(C(C)C)nn1 [Example 3, N-(4-((6,7-Dimethoxyquinazolin-4-yl)oxy)-2-methoxyphenyl)-2-(4-isopropyl-1H-1,2,3-triazol-1-yl)acetamide] | ≥ 10000 | 23 | 13 | 41 | 1080 | – | –
6 | COc1cc2ncnc(Oc3ccc(NC(=O)Cn4cc(C(C)C)nn4)cc3F)c2cc1OC [Example 4, N-(4-((6,7-Dimethoxyquinazolin-4-yl)oxy)-3-fluorophenyl)-2-(4-isopropyl-1H-1,2,3-triazol-1-yl)acetamide] | ≥ 10000 | 8 | 1 | 15 | 142 | – | –
7 | COCCOc1cc2ncnc(Oc3ccc(NC(=O)Cn4cc(C(C)C)nn4)cc3)c2cc1OC [Example 5, 2-(4-Isopropyl-1H-1,2,3-triazol-1-yl)-N-(4-((6-methoxy-7-(2-methoxyethoxy)quinazolin-4-yl)oxy)phenyl)acetamide] | ≥ 10000 | 11 | 8 | 15 | 289 | – | –
8 | COc1cc2c(Oc3ccc(NC(=O)Cn4cc(C(C)C)nn4)cc3)ncnc2cc1OCCN1CCCC1 [Example 6, 2-(4-Isopropyl-1H-1,2,3-triazol-1-yl)-N-(4-((6-methoxy-7-(2-(pyrrolidin-1-yl)ethoxy)quinazolin-4-yl)oxy)phenyl)acetamide] | ≥ 10000 | 72 | 22 | 55 | 2770 | – | –
9 | COc1cc2c(Oc3ccc(NC(=O)Cn4cc(C(C)C)nn4)cc3)ncnc2cc1OCCN(C)C [Example 7, N-(4-((7-(2-(Dimethylamino)ethoxy)-6-methoxyquinazolin-4-yl)oxy)phenyl)-2-(4-isopropyl-1H-1,2,3-triazol-1-yl)acetamide] | ≥ 10000 | 57 | 15 | 41 | 2520 | – | –
10 | COc1cc2c(Oc3ccc(NC(=O)Cn4cc(C(C)C)nn4)cc3)ncnc2cc1OCCO [Example 8, N-(4-((7-(2-Hydroxyethoxy)-6-methoxyquinazolin-4-yl)oxy)phenyl)-2-(4-isopropyl-1H-1,2,3-triazol-1-yl)acetamide] | ≥ 10000 | 55 | 25 | 75 | 1160 | – | –
11 | COc1cc2c(Oc3ccc(NC(=O)Cn4cc(C(C)C)nn4)cc3)ncnc2cc1OC1CCOCC1 [Example 9, 2-(4-Isopropyl-1H-1,2,3-triazol-1-yl)-N-(4-((6-methoxy-7-((tetrahydro-2H-pyran-4-yl)oxy)quinazolin-4-yl)oxy)phenyl)acetamide] | ≥ 10000 | 77 | 17 | 46 | 2110 | – | –
12 | COc1cc2c(Oc3ccc(NC(=O)Cn4cc(C(C)C)nn4)cc3)ncnc2cc1OC1COC1 [Example 10, 2-(4-Isopropyl-1H-1,2,3-triazol-1-yl)-N-(4-((6-methoxy-7-(oxetan-3-yloxy)quinazolin-4-yl)oxy)phenyl)acetamide] | ≥ 10000 | 74 | 18 | 51 | 1840 | – | –
13 | COc1cc2c(Oc3ccc(NC(=O)Cn4cc(C(C)C)nn4)cc3)ncnc2cc1OC(C)C [Example 11, N-[4-(7-Isopropoxy-6-methoxy-quinazolin-4-yl)oxyphenyl]-2-(4-isopropyl-1H-1,2,3-triazol-1-yl)acetamide] | ≥ 10000 | 57 | 16 | 28 | 903 | – | –
14 | CNC(=O)c1cc(Oc2ccc(NC(=O)Nc3ccc(Cl)c(C(F)(F)F)c3)c(F)c2)ccn1 [Regorafenib] | – | – | – | – | – | 4.8 | –
15 | Cc1ccc(NC(=O)c2ccc(CN3CCN(C)CC3)cc2)cc1Nc1nccc(-c2cccnc2)n1 [imatinib, Imatinib] | – | – | – | – | – | – | 50
